Several values for one entry are separate records, joined by “and”; a condition that tells them apart may be missing. Identical values can stand only once.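 Grown in 96-well plates, cells were treated for 48 hours with each compound at five concentrations. Insufficient inhibition: endpoint recorded as highest concentration tested. The concentration for 50% growth inhibition is given as GI50. TGI is the concentration that stops growth completely.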 *1 amine or outer side, *2 acyl side, *3 side chain or, on linkers, in order; H or OH if unused. Where a SMILES comes first, the peptide text is derived from it. [ ]: non-standard residue; d: D form. The star is where a group is joined. X31 = CC(=O)N(C)SCC(N[*:1])C(=O)[*:2]; Cbz = O=C(OCc1ccccc1)*; Bn = c1ccc(C*)cc1; For = O=C*
Key:
Assay in all cases: NCI anticancer screen, dose series, 48 h
[1] = system: KM12 colon
[2] = system: SK-MEL-28 melanoma
[3] = system: 786-0 renal
[4] = system: SK-OV-3 ovarian
[5] = system: SNB-75 CNS
[6] = system: DU-145 prostate
[7] = system: SF-268 CNS
[8] = system: HT29 colon
[9] = system: A549 NSCLC
[10] = system: HL-60(TB) leukemia
[11] = system: SK-MEL-5 melanoma
[12] = system: PC-3 prostate
[13] = system: CCRF-CEM leukemia
[14] = system: HCT-116 colon
[15] = system: NCI-H460 lung

Structure (SMILES) | TGI [1] [µM] | TGI [2] | TGI [3] [µM] | TGI [4] [µM] | TGI [5] [µM] | TGI [6] [µM] | TGI [7] [µM] | TGI [8] | TGI [9] [µM] | TGI [10] [µM] | TGI [11] | TGI [12] [µM] | TGI [13] | TGI [14] | TGI [15] | GI50 [2] | GI50 [4] | GI50 [6] | GI50 [13]
C=CCNC(=O)NC(=O)CSC1=NNC2(C(=O)N1)c1ccccc1-c1ccccc12 | > 10 | > 10 µM | > 10 | > 10 | > 10 | > 10 | > 10 | > 10 µM | > 10 | > 10 | > 10 µM | > 10 | > 10 µM | > 10 µM | > 10 µM |  |  |  | 
Cc1csc2[n+]1C(=O)/C(=C\c1ccc([N+](=O)[O-])cc1)S2 | 82.1 | > 100 µM | 71.8 | 85.1 | 57.1 | > 100 | 86.5 | 60.2 µM | > 100 | 64.4 | 55 µM | 75.5 | > 100 µM | 38.7 µM | 41.9 µM |  |  |  | 
CCOC(CN(C)C(=O)Nc1cccc2ccccc12)OCC | > 10 | > 10 µM | > 10 | > 10 | > 10 | > 10 | > 10 | > 10 µM | > 10 | > 10 | > 10 µM | > 10 | > 10 µM | > 10 µM | > 10 µM |  |  |  | 
CCOP(=O)(OCC)/C(C#N)=C/c1ncc[nH]1 | > 100 | > 100 µM | > 100 | > 100 | > 100 | > 100 | > 100 | > 100 µM | > 100 | > 100 | > 100 µM | > 100 | > 100 µM | > 100 µM | > 100 µM |  |  |  | 
C=CCN1C(=O)/C(=C/c2ccc(OC)cc2)N=C1SC/C=C/C | > 100 | > 100 µM | > 100 | > 100 | > 100 | > 100 | > 100 | > 100 µM | > 100 | 54.4 | 39.4 µM | > 100 | > 100 µM | > 100 µM | > 100 µM |  |  |  | 
C(=C\c1cccs1)/c1cccc(/C=C/c2cccs2)n1 | > 100 | > 100 µM | > 100 | > 100 | 79.4 | > 100 | 6.9 | > 100 µM | > 100 | > 100 | > 100 µM | > 100 | > 100 µM | > 100 µM | > 100 µM |  |  |  | 
O=C(ON=C1c2ccccc2C(Br)C(Br)c2ccccc21)c1cc([N+](=O)[O-])cc([N+](=O)[O-])c1 (centres undefined) | 37.4 | 34.6 µM | 28.7 | 66.8 | 30.2 | 66 | 35.7 | 37.7 µM | 75.7 | 0.422 | 30.7 µM | > 73.5 | 3.65 µM | 32.5 µM | 38.2 µM |  |  |  | 
N#Cc1c(-c2ccccc2)cc(-c2ccccc2)n(C2OC(CO)C(O)C(O)C2O)c1=S (centres undefined) | > 100 | 47.4 µM and > 100 µM | > 100 | > 100 | > 100 | > 100 | > 100 | 56 µM and > 100 µM | > 100 | > 100 | 29.1 µM and > 100 µM | > 100 | 57.4 µM and > 100 µM | 46.9 µM and > 100 µM | 82.8 µM and > 100 µM | 18.8 µM and 53.5 µM | 40.3 µM and 85 µM | 42.2 µM and > 100 µM | 12.5 µM and 29.2 µM
COC(=O)[C@@H]1CN(C(C)=O)C(=O)N1 | > 100 | > 100 µM | > 100 | > 100 | > 100 | > 100 | > 100 | > 100 µM | > 100 | > 100 | > 100 µM | > 100 | > 100 µM | > 100 µM | > 100 µM |  |  |  | 
CC[C@]1(Cc2ccc(OC)c(OC)c2)C=[N+]([O-])O[C@H](OC2CCCC2(c2ccccc2)c2ccccc2)[C@@H]1OC(=O)c1ccccc1 (some centres undefined) | 22.9 | > 100 µM | > 100 | > 100 | > 37.9 | > 56.3 | > 100 | > 71.1 µM | > 100 | > 100 | 12.7 µM | > 100 | > 30.1 µM | > 100 µM | > 100 µM |  |  |  | 
CC(=O)N(C)SCC(NC(=O)C(Cc1ccccc1)NC(=O)OCc1ccccc1)C(=O)NC(Cc1ccccc1)C(=O)NC(Cc1cn(C=O)c2ccccc12)C(=O)NC(CCCCNC(=O)OCc1ccccc1)C(=O)NC(C(=O)NC(CSN(C)C(C)=O)C(=O)NC(C(N)=O)C(C)OCc1ccccc1)C(C)OCc1ccccc1 (centres undefined) (Cbz-F[X31]FW(For)K(Cbz)T(Bn)[X31]T(Bn)-NH2; configuration not given here) | > 100 | > 100 µM | > 100 | 96.1 | 36.9 | > 100 | > 100 | > 100 µM | > 100 | > 100 | > 100 µM | > 100 | > 100 µM | > 100 µM | > 100 µM |  |  |  | 
Cc1cc2c(cc1-c1cc3c(cc1C)C(C(C)C)=C(O)C(=O)/C3=C\Nc1c3ccccc3nc3ccccc13)/C(=C/Nc1c3ccccc3nc3ccccc13)C(=O)C(O)=C2C(C)C | 14.1 | 19.5 µM | 14.8 | 15.9 | 13 | 20.6 | 14.7 | 5.1 µM | 13.1 | 11.2 | 15.4 µM | 12.9 | 25.5 µM | 21.5 µM | 6.3 µM |  |  |  | 
C=C(C)C1=CCC[C@]2(C1)N=C(OC)[C@@H](C(C)C)N=C2OC | > 100 | > 100 µM | > 100 | > 100 | > 100 | > 100 | > 100 | > 100 µM | > 100 | 87.9 | > 100 µM | > 100 | > 100 µM | > 100 µM | > 100 µM |  |  |  | 
C=CCN1C(=O)/C(=C/c2ccco2)N=C1SC/C=C/C | > 100 | > 100 µM | > 100 | > 100 | > 100 | > 100 | > 100 | > 100 µM | > 100 | 76 | 44.3 µM | > 100 | > 100 µM | > 100 µM | > 100 µM |  |  |  | 
CC(C)Cn1cnc2c(NCC(C)O)nc3ccccc3c21 (centres undefined) | > 100 | > 100 µM | > 100 | > 100 | > 100 | > 100 | > 100 | > 100 µM | > 100 | > 100 | > 100 µM | > 100 | > 100 µM | > 100 µM | > 100 µM |  |  |  | 
O=c1oc2ccc3ccccc3c2cc1-c1cn2ccccc2n1 | > 100 | > 100 µM | > 100 | > 100 | > 100 | > 100 | > 100 | 77.5 µM | > 100 | > 100 | > 100 µM | > 100 | > 100 µM | > 100 µM | > 100 µM |  |  |  | 
COc1ccc(Nc2nnc(-c3nsc4ccccc34)s2)cc1 | > 100 | > 100 µM | 9.77 | 19 | 17.3 | > 100 | > 100 | > 100 µM | > 100 | > 100 | > 100 µM | > 100 | > 100 µM | 45.2 µM | > 65.9 µM |  |  |  | 
CC(=O)C(=C(c1ccccc1)c1ccccc1)c1ccccc1 | > 100 | > 100 µM | > 100 | > 100 | > 100 | > 100 | > 100 | > 100 µM | > 100 | > 100 | > 100 µM | > 100 | > 100 µM | > 100 µM | > 100 µM |  |  |  | 
CCOC(=O)/C(C#N)=C\c1ccc(N(CCC(=O)O)CCC(=O)O)c(I)c1 | > 10 | > 10 µM | > 10 | > 10 | > 10 | > 10 | > 10 | > 10 µM | > 10 | > 10 | > 10 µM | > 10 | > 10 µM | > 10 µM | > 10 µM |  |  |  | 
O=S1(=O)N=C(SCc2ccccc2)N(c2ccccc2)c2ccncc21 | > 100 | > 100 µM | > 100 | > 100 | > 100 | > 100 | > 100 | > 100 µM | > 100 | > 100 | > 100 µM | > 100 | > 100 µM | > 100 µM | > 100 µM |  |  |  | 
CCCCCCCCCCCCCCCCCCNC(=O)C(N)Cc1ccc(OCc2ccccc2)cn1 (centres undefined) | 35.5 | 50.8 µM | 41.6 | 40.2 | 47.4 | 43.4 | 43.4 | 31.2 µM | 42.6 | 37.1 | 31.9 µM | 27.7 | 78.9 µM | 38.2 µM | 29.9 µM |  |  |  | 

Reference: PubChem BioAssay (NCI)
